Assay results from US20070270403A1 (priority 2003, published 2007).
Like-named read-outs stand apart in the source and are kept apart here.

Key:
DA release in NAcc [1] = test: In vivo microvoltammetry, DA release in NAcc (clozapine studies); set-up: species or system Sprague-Dawley Rattus Norvegicus; conditions: ketanserin 3 mg/kg s.c. substituted for clozapine
Description: (§1) There is an increasing awareness that a psychosis, similar to that of schizophrenic psychosis, can be derived from cocaine addiction. […] Release mechanisms for monoamines, were determined by using a depolarization blocker, gamma-butyrolactone (γBL). […] Acute and Subacute studies were performed for each treatment group.
(§2) The stereotaxic equipment was purchased from David Kopf Instruments, Tujunga, Calif. A Ag/AgCl reference electrode was placed in contact with dura, 7 mm anteriorally and contralaterally to the indicator microelectrode. A stainless steel auxiliary microelectrode was placed in contact with dura. BRODERICK PROBE® microelectrodes were manufactured on site.
(§3) In vivo microvoltammetric studies on conscious Sprague-Dawley laboratory rats were begun nine to fifteen days after the aseptic surgical operations were performed. On each experimental day, the animal was placed in a Plexiglas-copper faradaic chamber. The three-microelectrode assembly, enclosed within the animal's prosthetic acrylic cap, was connected to a CV37 detector by means of a mercury commutator (Br. Res. Instr., Princeton, N.J.), a flexible cable, and a mating connector (BJM Electronics, Staten Island, N.Y.). The CV37 detector was electrically connected to a Minigard surge suppresser (Jefferson Electric, Magnetek, N.Y.) which was then connected to an electrical ground in isolation. […] Each animal was used as its own control. Changes in synaptic concentrations of DA and 5-HT are presented as percent change (% of control) in order to minimize normal between-animal variations. […] In vivo microvoltammetric scans were recorded in sec and repeated every five min for a period of 2 hrs before each treatment and a period of two hrs after each treatment.
(§4) Potentials were applied with a CV37 detector (BAS, West Lafayette, Ind.). Potentials were applied from −0.2V to +0.4V with respect to a Ag/AgCl (1M NaCl) electrode, at a scan rate of 10 mV/sec at time constants of 5 and 1 tau. One scan was completed in 60 sec. Non-faradaic charging current was eliminated in the first 25 sec.
(§5) Calibration curves were determined experimentally, in vitro, in a freshly prepared deoxygenated physiological saline-phosphate buffer solution (0.01 M, pH=7.4). We use ultra pure Nitrogen (N2) (T. W. Smith Corp., Bklyn, N.Y.) to deoxygenate the buffer solution. […] Calibration studies were also performed in freshly prepared deoxygenated buffer solutions containing phosphotidylethanolamine (PEA), combined with bovine serum albumin (BSA) (Sigma Aldrich, St. Louis, Mo.), a solution which closely mimics brain constituents. […] Detection limits for basal synaptic concentrations of DA and 5-HT in NAcc were 12 nM and 2 nM respectively.

5-HT release in NAcc [2] = test: In vivo microvoltammetry, 5-HT release in NAcc (clozapine studies); set-up: species or system Sprague-Dawley Rattus Norvegicus; conditions: ketanserin 3 mg/kg s.c. substituted for clozapine
Description: as §1, §2, §3, §4, §5

[3] = system: Sprague-Dawley laboratory rats; test: Locomotor activity (ambulations) by infrared photobeams (clozapine studies); format: in vivo, Sprague-Dawley Rattus Norvegicus; conditions: ketanserin 3 mg/kg s.c. substituted for clozapine
Source text: Locomotor activity (ambulation) was monitored with infrared photobeams at the same time as DA and 5-HT release in NAcc was detected with BRODERICK PROBES® in conjunction with In Vivo Microvoltammetry. The chamber was faradaic, covered with copper to refract possible electrical artifacts (dimensions: 24 in (width) by 18 in (depth) by 23.5 in (height)). A 16 by 16 array of these infrared photobeams, were held in place by an aluminum frame which was situated ¾ in above the Plexiglas floor of the chamber to detect locomotor activity. Photobeams were sampled by a Pentium computer to define the x-y position of the animal within a 1.5 in resolution every 100 msec. When an x-y position was calculated, it was used to define the frequency of locomotor activity in counts. The locomotor activity system is a modified version of an Activity Pattern Monitor (APM) (San Diego Instruments, San Diego, Calif.). Behavioral data is presented in absolute frequency, i.e., number of counts recorded.
The first hr pre-drug allowed exploratory behavior. Exploratory behavior is defined as open-field behavior of ambulations (forward locomotion) wherein animals respond to the stimuli of a novel environment with high frequency of behavioral counts. The second hr pre-drug allowed the animal to become habituated before treatment.
In the Acute studies, each drug was administered at the end of the habituation period. Baseline (control) values were taken every five min for the last thirty min of the habituation period at which time drug injection(s) took place. Electrochemical recordings for DA and 5-HT release in NAcc, were continued for two hrs; at the same time, locomotor behavior continued to be monitored and recorded with infrared photobeams. At the end of the 2 hr drug(s) study, animals were then placed back in their home cages.
In the Subacute studies, which took place twenty-four hrs later, the animals were again placed in the faradaic behavioral chamber and no further drug was administered. Recordings of separate electrochemical signals for DA and 5-HT release in NAcc, were taken for one hr; at the same time, locomotor behavior was monitored and recorded with infrared photobeams.
(§6) Neurochemical and behavioral data, derived from the last thirty minutes of the habituation period, provided the baseline data. […] Where appropriate, data points in the time course were subjected to 95% Confidence Limits (C.L.).

5-HT2A receptors = 5-HT2A receptors (Homo sapiens, UniProt P28223); conditions: cited from earlier work
Chain of 5-HT2A receptors (P28223 whole entry): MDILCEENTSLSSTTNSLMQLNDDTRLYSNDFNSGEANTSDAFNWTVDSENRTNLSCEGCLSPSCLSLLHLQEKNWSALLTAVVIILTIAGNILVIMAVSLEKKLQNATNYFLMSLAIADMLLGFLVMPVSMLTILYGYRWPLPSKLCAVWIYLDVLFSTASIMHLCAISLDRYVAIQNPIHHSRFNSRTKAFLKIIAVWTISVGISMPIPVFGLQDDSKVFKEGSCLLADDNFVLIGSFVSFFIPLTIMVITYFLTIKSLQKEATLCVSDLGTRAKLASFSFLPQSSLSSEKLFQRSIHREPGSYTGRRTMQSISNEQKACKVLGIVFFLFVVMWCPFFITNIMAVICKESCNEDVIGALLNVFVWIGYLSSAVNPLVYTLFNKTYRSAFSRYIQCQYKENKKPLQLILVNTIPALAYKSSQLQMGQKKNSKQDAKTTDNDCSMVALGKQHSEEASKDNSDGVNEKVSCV

DA2 receptors = DA2 receptors (Homo sapiens, UniProt P14416); conditions: ketanserin: DA receptors; cited from earlier work
Chain of DA2 receptors (P14416 whole entry): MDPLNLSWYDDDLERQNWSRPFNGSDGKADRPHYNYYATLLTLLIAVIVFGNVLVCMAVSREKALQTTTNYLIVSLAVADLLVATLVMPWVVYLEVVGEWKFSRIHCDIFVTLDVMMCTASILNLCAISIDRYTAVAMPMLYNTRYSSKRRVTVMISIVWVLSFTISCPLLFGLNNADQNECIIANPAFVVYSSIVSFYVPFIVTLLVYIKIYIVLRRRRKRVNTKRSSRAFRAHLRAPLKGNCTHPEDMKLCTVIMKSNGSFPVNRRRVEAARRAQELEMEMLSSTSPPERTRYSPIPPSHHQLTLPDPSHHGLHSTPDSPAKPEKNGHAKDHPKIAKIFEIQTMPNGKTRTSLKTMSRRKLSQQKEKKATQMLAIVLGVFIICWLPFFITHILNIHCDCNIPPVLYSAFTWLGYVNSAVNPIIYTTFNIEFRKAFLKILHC

DA release in NAcc [4] = test: In vivo microvoltammetry, DA release in NAcc (risperidone studies); set-up: species or system Sprague-Dawley Rattus Norvegicus
Description: (§7) In vivo microvoltammetry was used to detect dopamine (DA) and serotonin (5-HT) release from Nucleus Accumbens (NAcc) of freely moving, male, Sprague Dawley laboratory rats, while animals' locomotor (forward ambulations) and stereotypic behavior (fine movements of sniffing and grooming) were monitored at the same time with infrared photobeams. Monoamine release mechanisms were determined by using a depolarization blocker, gamma-butyrolactone (γBL). Miniature carbon sensors, BRODERICK PROBE® Lauric Acid Microelectrodes, smaller than a human hair, were used in conjunction with a semidifferential electrochemical circuit, to detect release of each monoamine in separate signals and within seconds. […] The hypothesis for the present studies is derived from a growing body of evidence that cocaine-induced psychosis and schizophrenic psychosis share similar neurochemical and behavioral manifestations.
(§8) Animals were purchased from Charles River Laboratories, Kingston, N.Y. and were housed in our animal care facilities for two weeks before surgery was performed. The Animal Care Facility operates under the auspices of the CUNY, City College Institutional Animal Care and Use Committee (IACUC) in compliance with National Institute of Health (NIH) guidelines. The weight range for the animals, at the time of the studies, was 350-475 g. Animals were group housed before surgery, individually housed after surgery and fed Purina Rat Chow and water ad libitum. A twelve hr dark-light cycle was maintained both in the housing of the animals and throughout the experimental studies. […] A Ag/AgCl reference electrode was placed in contact with dura, 7 mm anteriorally and contralaterally to the indicator microelectrode. A stainless steel auxiliary microelectrode, was placed in contact with dura.
In vivo microvoltammetric studies on conscious Sprague-Dawley laboratory rats were begun nine to fifteen days after the aseptic surgical operations were performed. On each experimental day, animals were placed in a Plexiglas-copper faradaic chamber. The three-microelectrode assembly, enclosed within the animal's prosthetic acrylic cap, was connected to a CV37 detector by means of a mercury commutator (Br. Res. Instr., Princeton, N.J.), a flexible cable, and a mating connector (BJM Electronics, Staten Island, N.Y.). […] In vivo microvoltammetric scans were recorded in sec and repeated every five min for a period of 2 hrs before each treatment and a period of two hrs after each treatment.
The first hr pre-drug, allowed exploratory behavior. […] Each animal was monitored for possible recovery, withdrawal or after-effects. of each treatment WHILE open-field behaviors of locomotions and stereotypy were monitored with computerized infrared photocell beams which surround the faradaic chamber.

5-HT release in NAcc [5] = test: In vivo microvoltammetry, 5-HT release in NAcc (risperidone studies); set-up: species or system Sprague-Dawley Rattus Norvegicus
Description: as §7, §8
In vivo microvoltammetric studies on conscious Sprague-Dawley laboratory rats were begun nine to fifteen days after the aseptic surgical operations were performed. On each experimental day, animals were placed in a Plexiglas-copper faradaic chamber. The three-microelectrode assembly, enclosed within the animal's prosthetic acrylic cap, was connected to a CV37 detector by means of a mercury commutator (Br. Res. Instr., Princeton, N.J.), a flexible cable, and a mating connector (BJM Electronics, Staten Island, N.Y.). The CV37 detector was electrically connected to a Minigard surge suppresser (Jefferson Electric, Magnetek, N.Y.) which was then connected to an electrical ground in isolation. […] Each animal was used as its own control. In vivo microvoltammetric scans were recorded in sec and repeated every five min for a period of 2 hrs before each treatment and a period of two hrs after each treatment.
(§9) The first hr pre-drug, allowed exploratory behavior. Exploratory behavior is defined as open-field behavior of ambulations (forward locomotion) and stereotypy (fine movements of sniffing and grooming), wherein animals respond to the stimuli of a novel environment with a high frequency of behavioral counts. The second hr pre-drug allowed the animal to become habituated before treatment. […] In the acute studies, each drug was administered […]. For the subacute studies, twenty four hrs later, the animals were again placed in the faradaic behavioral chamber and no further drug was administered. Each animal was monitored for possible recovery, withdrawal or after-effects. of each treatment WHILE open-field behaviors of locomotions and stereotypy were monitored with computerized infrared photocell beams which surround the faradaic chamber.

[6] = system: Sprague-Dawley laboratory rats; test: Locomotion (ambulations) by infrared photobeams (risperidone studies); format: in vivo, Sprague-Dawley Rattus Norvegicus
Description: (§10) Behaviors were monitored with infrared photobeams which surrounded the faradaic chamber. Open-field behaviors of locomotion (ambulations) and stereotypy (fine movements of sniffing and grooming) were recorded in sec and repeated every five min for a period of 2 hrs before each treatment and a period of 2 hrs after each treatment. Open-field behaviors were monitored simultaneously with in vivo microvoltammetric recordings of monoamines.
as §9
(§11) The faradaic chamber was made of plexiglas and covered with copper wire to refract possible electrical artifacts (dimensions: 24 inch (width) by 18 inch (depth) by 23.5 inch (height)). A 16 by 16 array of infrared photobeams, held in place by an aluminum frame, was situated ¾ inch above the Plexiglas floor of the chamber to detect locomotor and stereotypic movements. Photobeams were sampled by a Pentium computer to define the x-y position of the animal within a 1.5 inch resolution every 100 msec. When an x-y position was calculated, it was used to define a particular behavioral parameter. This system is a modified version of an Activity Pattern Monitor (APM) (San Diego Instruments, San Diego, Calif.). Behavioral data is presented in terms of Frequency of Events.
as §6

[7] = system: Sprague-Dawley laboratory rats; test: Stereotypy (fine movements of sniffing and grooming) by infrared photobeams (risperidone studies); format: in vivo, Sprague-Dawley Rattus Norvegicus
Description: as §10, §9, §11, §6

[8] = humans, cited from earlier work
DA2 receptor = molecular target: T1, DA2 receptor (Rattus norvegicus, UniProt P61169); conditions: cited from earlier work
T1 construct: host or cells: brain (nucleus accumbens) of dosed animals
T1 sequence (P61169 whole entry): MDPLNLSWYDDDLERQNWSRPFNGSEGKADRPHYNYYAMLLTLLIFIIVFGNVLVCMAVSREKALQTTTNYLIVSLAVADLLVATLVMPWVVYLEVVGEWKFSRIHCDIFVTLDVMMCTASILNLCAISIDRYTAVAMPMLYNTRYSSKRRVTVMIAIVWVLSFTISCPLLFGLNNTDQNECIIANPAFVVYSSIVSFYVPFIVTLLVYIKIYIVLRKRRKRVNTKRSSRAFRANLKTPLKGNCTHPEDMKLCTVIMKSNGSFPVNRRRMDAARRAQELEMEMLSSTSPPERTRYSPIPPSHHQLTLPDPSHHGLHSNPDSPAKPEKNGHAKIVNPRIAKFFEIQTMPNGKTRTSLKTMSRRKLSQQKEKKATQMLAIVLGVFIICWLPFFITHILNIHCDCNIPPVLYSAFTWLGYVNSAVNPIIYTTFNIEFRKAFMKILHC

[9] = system: 5-hydroxyindoleacetic acid (5-HIAA) in NAcc; conditions: risperidone 0.2 mg/kg s.c. and 2.0 mg/kg s.c., time-dependent; cited from earlier work
[10] = risperidone 2 mg/kg s.c. + cocaine 10 mg/kg i.p., versus cocaine group
[11] = risperidone 2 mg/kg s.c. + cocaine 10 mg/kg i.p., entire 2 hr period
[12] = risperidone 2 mg/kg s.c., cocaine 10 mg/kg i.p. or both, 2 hr
[13] = 24 hr after risperidone 2 mg/kg s.c.
[14] = 24 hr after single dose, no further drug

Compound: O=C(c1ccc(F)cc1)C1CCN(CCn2c(=O)[nH]c3ccccc3c2=O)CC1 [ketanserin]
- Blockade of cocaine-induced DA release, Acute, compared with clozapine (DA release in NAcc [1]): weaker than that of clozapine
- Blockade of cocaine-induced 5-HT release, Acute, compared with clozapine (5-HT release in NAcc [2]): weaker than that of clozapine
- Blockade of cocaine-induced psychomotor stimulant behavior, Acute, compared with clozapine [3]: weaker than that of clozapine
- Affinity for 5-HT2A receptors (5-HT2A receptors): high affinity
- Affinity for DA2 receptors (DA2 receptors): does not bind

Compound: Cc1nc2n(c(=O)c1CCN1CCC(c3noc4cc(F)ccc34)CC1)CCCC2 [Risperidone, risperidone]
- DA release in NAcc Day 2 versus Day 1 baseline, Subacute (DA release in NAcc [4]; 24 hr after single dose (risperidone 2 mg/kg s.c., cocaine 10 mg/kg i.p. or both), no further drug): returned to baseline
- DA release in NAcc versus baseline (habituation), Day 1 Acute (DA release in NAcc [4]; risperidone 2 mg/kg s.c. (N=5) or cocaine 10 mg/kg i.p. (N=4), 2 hr): significantly increased
- Effect on cocaine-induced DA release, Acute, first hr (DA release in NAcc [4]; [10]): significant blockade
- Effect on cocaine-induced DA release, Acute, second hr (DA release in NAcc [4]; [10]): did not completely block
- 5-HT release in NAcc Day 2 versus Day 1 baseline, Subacute (5-HT release in NAcc [5]; 24 hr after single dose, no further drug, 1 hr, cocaine: 15, 20, 50, 55 min time points): significantly increased
- Increase in 5-HT release in NAcc during the time course (up to) (5-HT release in NAcc [5]; Acute, risperidone 2 mg/kg s.c.): about 60%
- Further increase in 5-HT release on Day 2 compared to drug effect on Day 1 (approximate average) (5-HT release in NAcc [5]; Subacute, risperidone 2 mg/kg s.c. on Day 1): ~25%
- Effect on cocaine-induced 5-HT release, Acute (5-HT release in NAcc [5]; [11]): blocked
- 5-HT release in NAcc versus baseline (habituation), Day 1 Acute (5-HT release in NAcc [5]; [12]): significantly increased
- Locomotor activity frequency, Day 2 (Subacute) [6, 13]: about 200 counts
- Locomotion Day 2 versus Day 1 baseline, Subacute [6, 14]: did not affect locomotion to a statistically significant degree
- Locomotor activity frequency with drug treatment, Day1 ([6]; risperidone 2 mg/kg s.c.): 50 counts
- Effect on cocaine-induced locomotor (psychostimulant) activity, Acute [6, 11]: blocked
- Locomotor activity (ambulations) versus baseline (habituation), Day 1 Acute [6, 12]: did not affect
- Stereotypy maximum frequency, Day 2 (Subacute) [7, 13]: about 50 counts
- Stereotypy Day 2 versus Day 1 baseline, Subacute [7, 14]: increased stereotypy to a statistically significant degree
- Stereotypy maximum frequency with drug treatment, Day 1 ([7]; risperidone 2 mg/kg s.c.): 12 counts
- Effect on cocaine-induced stereotypic activity, Acute [7, 11]: blocked
- Stereotypy versus baseline (habituation), Day 1 Acute [7, 12]: did not affect
- half-life ([8]; fast metabolizers): 3 h
- half-life ([8]; slow metabolizers): 20 h
- ED50 of DA2 receptor occupancy (DA2 receptor; NAcc, [3H] spiperone labeling studies): 1.0 mg/kg
- DA2 receptor occupancy (DA2 receptor; high dose risperidone): 70%
- Affinity for DA2 receptors (DA2 receptors): high affinity
- Increase in 5-HIAA concentrations above baseline (up to) [9]: up to 20%
